Consider 14 molecules from patent US20140356325A1, “NOVEL 2'-C-METHYL NUCLEOSIDE DERIVATIVE COMPOUNDS” (Ligand Pharmaceuticals Incorporated, priority 2012, published 2014).

SMILES strings stand for the structures. Where a name gives a salt, the structure may show the parent alone.

What is called melting point is the temperature of the solid-liquid transition.

One data set has as its system HCV replication in human liver tissue. The data set is described as follows: HCV-infected human liver slice assay. Format: cell-based. Particulars: relative to control, untreated slices; following incubation. As for the experimental part:
Inhibition of HCV replication in human liver tissue is evaluated using the following assay. Procurement. Liver from a brain-dead HCV antibody-positive human patient is perfused with ice-cold Viaspan (Dupont Pharmaceutical) preservation solution and received on ice in Viaspan. Precision-cut liver slices of ˜200-250 μm thickness and […] are prepared and cultured in Waymouth's cell culture medium (Gibco, Inc.) that is supplemented with 10% fetal bovine serum and 10 mL/L Fungi-Bact at 37° C., and gassed with carbogen (95% O2, 5% CO2) at 0.75 liters/min. Tissue slices are maintained in culture for 72 h. Cell culture medium containing test compound in solution is changed on a daily basis. At appropriate times of liver slice incubation, liver slices and medium are collected for analysis of HCV RNA (tissue and medium) and nucleotide levels (NTP). All collected media and tissue slices are maintained in liquid N2 until analysis. Medium and tissue samples are analyzed for HCV RNA levels according to published procedures (Bonacini et. al., 1999) which utilize an automated, multicycle, polymerase chain reaction (PCR) based technique. This assay has a lower limit of detection for HCV RNA of 100 viral copies/ml.
As to `C[C@@]1(O)[C@H](O)[C@@H](CO)O[C@H]1n1cnc2c(=O)[nH]c(N)nc21` [2′-C-methylguanosine], the “HCV RNA levels present in the liver slice culture media” value was “decreased”.

The data set is the same for the next values; noted with them: treatment for 72 h; medium from 48-72 h.
`C[C@@]1(O)[C@H](O)[C@@H](CO)O[C@H]1n1cnc2c(=O)[nH]c(N)nc21` [2′-C-methylguanosine]: the “amount of HCV RNA released into the culture medium” value was “decreases”.

Test system in the next data set: not given
Assay: not given
Conditions: not given
In the case of `CCOc1nc(N)nc2c1ncn2[C@@H]1O[C@H](CO[P@@]2(=O)OCC[C@@H](c3cccc(F)c3)O2)[C@H]2OC(=O)O[C@]21C` [Compound 124, 2(R)-(2-Amino-6-ethoxy-9(H)-purinyl)-4(R)-(4(S)-(3-fluorophenyl)-2-oxo-1,3,2-dioxaphosphorinan-2(R)-yloxymethyl)-1(R)-methyl-7-oxo-3,6,8-trioxa-cis-bicyclo[3.3.0]octane], the melting point lay in the range of 88 to 90 °C.
Same read-out and setting: with `CCOc1nc(N)nc2c1ncn2[C@@H]1O[C@H](CO[P@@]2(=O)OCC[C@@H](c3cccc(Cl)c3)O2)[C@H]2OC(=O)O[C@]21C` [Compound 120, 2(R)-(2-Amino-6-ethoxy-9(H)-purinyl)-4(R)-(4(S)-(3-chlorophenyl)-2-oxo-1,3,2-dioxaphosphorinan-2(R)-yloxymethyl)-1(R)-methyl-7-oxo-3,6,8-trioxa-cis-bicyclo[3.3.0]octane] the figure was 82 to 84 °C.
The molecule `C[C@@]12OC(=O)O[C@@H]1[C@@H](CO[P@@]1(=O)OCC[C@@H](c3cccc(Cl)c3)O1)O[C@H]2n1cnc2c(O)nc(N)nc21` [Compound 106, 2(R)-(2-Amino-6-hydroxy-9 (H)-purinyl)-4(R)-(4(S)-(3-chlorophenyl)-2-oxo-1,3,2-dioxaphosphorinan-2(R)-yloxymethyl)-1(R)-methyl-7-oxo-3,6,8-trioxa-cis-bicyclo[3.3.0]octane] came in with a melting point of more than 200 °C.
For the molecule `C[C@@]12OC(=O)O[C@@H]1[C@@H](CO[P@@]1(=O)OCC[C@@H](c3cccc(Cl)c3)O1)O[C@H]2n1cnc2c(OCC3CC4CCC3C4)nc(N)nc21` (stereo partly drawn) [Compound 139, 2(R)-(2-Amino-6-(2-bicyclo[2.2.1]heptanylmethoxy)-9(H)-purinyl)-4(R)-(4(S)-(3-chlorophenyl)-2-oxo-1,3,2-dioxaphosphorinan-2(R)-yloxymethyl)-1(R)-methyl-7-oxo-3,6,8-trioxa-cis-bicyclo[3.3.0]octane], the melting point fell in the range of 99 to 101 °C.
Consider `CCOc1nc(N)nc2c1ncn2[C@@H]1O[C@H](CO[P@@]2(=O)OCC[C@@H](c3cccc(Cl)c3)O2)[C@@H](OC(=O)C2CCCC2)[C@@]1(C)O` [Compound 186, 2(R)-(2-Amino-6-ethoxy-9(H)-purinyl)-5(R)-(4(S)-(3-chlorophenyl)-2-oxo-1,3,2-dioxaphosphorinan-2(R)-yloxymethyl)-3(R)-hydroxy-3(R)-methyl-4(R)-cyclopentylcarboxy-tetrahydrofuran], for which the melting point was 106 to 111 °C.
Same read-out and setting: with `CCCCCOc1nc(N)nc2c1ncn2[C@@H]1O[C@H](CO[P@@]2(=O)OCC[C@@H](c3cccc(Cl)c3)O2)[C@H]2OC(=O)O[C@]21C` [Compound 150, 2(R)-(2-Amino-6-pentyloxy-9(H)-purinyl)-4(R)-(4(S)-(3-chlorophenyl)-2-oxo-1,3,2-dioxaphosphorinan-2(R)-yloxymethyl)-1(R)-methyl-7-oxo-3,6,8-trioxa-cis-bicyclo[3.3.0]octane] the figure was 80 to 82 °C; with `CCOc1nc(N)nc2c1ncn2[C@@H]1O[C@H](CO[P@@]2(=O)OCC[C@@H](c3cccc(Cl)c3)O2)[C@@H](OC(=O)C(C)C)[C@@]1(C)O` (as salt: trifluoroacetate) [Compound 185, 2(R)-(2-Amino-6-ethoxy-9(H)-purinyl)-5(R)-(4(S)-(3-chlorophenyl)-2-oxo-1,3,2-dioxaphosphorinan-2(R)-yloxymethyl)-3(R)-hydroxy-3(R)-methyl-4(R)-isobutyryloxy-tetrahydrofuran], 162 to 165 °C.
In turn, `CC1CC1COc1nc(N)nc2c1ncn2[C@@H]1O[C@H](CO[P@@]2(=O)OCC[C@@H](c3cccc(Cl)c3)O2)[C@H]2OC(=O)O[C@]21C` (stereo partly drawn) [Compound 135, 2(R)-(2-Amino-6-(2-methylcyclopropylmethoxy)-9(H)-purinyl)-4(R)-(4(S)-(3-chlorophenyl)-2-oxo-1,3,2-dioxaphosphorinan-2(R)-yloxymethyl)-1(R)-methyl-7-oxo-3,6,8-trioxa-cis-bicyclo[3.3.0]octane] had a melting point of 88 to 90 °C.
The same measure, in the same setting: with `C[C@@]12OC(=O)O[C@@H]1[C@@H](CO[P@@]1(=O)OCC[C@@H](c3cccc(Cl)c3)O1)O[C@H]2n1cnc2c(OCC3CCC3)nc(N)nc21` [Compound 140, 2(R)-(2-Amino-6-cyclobutylmethoxy-9(H)-purinyl)-4(R)-(4(S)-(3-chlorophenyl)-2-oxo-1,3,2-dioxaphosphorinan-2(R)-yloxymethyl)-1(R)-methyl-7-oxo-3,6,8-trioxa-cis-bicyclo[3.3.0]octane] the figure was 92 to 94 °C.
The same measure, in the same setting: the same measure for `CCC(CC)COc1nc(N)nc2c1ncn2[C@@H]1O[C@H](CO[P@@]2(=O)OCC[C@@H](c3cccc(Cl)c3)O2)[C@H]2OC(=O)O[C@]21C` [Compound 143, 2(R)-(2-Amino-6-(2-ethylbutyloxy)-9(H)-purinyl)-4(R)-(4(S)-(3-chlorophenyl)-2-oxo-1,3,2-dioxaphosphorinan-2(R)-yloxymethyl)-1(R)-methyl-7-oxo-3,6,8-trioxa-cis-bicyclo[3.3.0]octane]: 72 to 75 °C; for `CC(C)[C@H](N)C(=O)O[C@@H]1[C@@H](CO[P@@]2(=O)OCC[C@@H](c3cccc(Cl)c3)O2)O[C@@H](n2cnc3c(O)nc(N)nc32)[C@]1(C)O` (as salt: trifluoroacetate) [Compound 118, 2(R)-(2-Amino-6-hydroxy-9 (H)-purinyl)-5(R)-(4(S)-(3-chlorophenyl)-2-oxo-1,3,2-dioxaphosphorinan-2(R)-yloxymethyl)-3(R)-hydroxy-3(R)-methyl-4(R)-L-valinyl-tetrahydrofuran]: more than 210 °C.
In turn, `CCOc1nc(N)nc2c1ncn2[C@@H]1O[C@H](CO[P@]2(=O)OCC[C@H](c3cc(Cl)cc(Cl)c3)O2)[C@H]2OC(=O)O[C@]21C` [Compound 128, 2(R)-(2-Amino-6-ethoxy-9(H)-purinyl)-4(R)-(4(R)-(3,5-dichlorophenyl)-2-oxo-1,3,2-dioxaphosphorinan-2(S)-yloxymethyl)-1(R)-methyl-7-oxo-3,6,8-trioxa-cis-bicyclo[3.3.0]octane] returned a melting point of 101 to 103 °C.

Another data set has as its system purine salvage pathway enzymes such as adenosine deaminase and purine nucleoside phosphorylase.
Assay: not given
As to conditions: cited from earlier work.
In the case of `C[C@@]1(O)[C@H](O)[C@@H](CO)O[C@H]1n1cnc2c(N)ncnc21` [2′-C-methyladenosine], the “resistance to metabolism by purine salvage pathway enzymes” value was “increased resistance to metabolism”.
